The results in this text go back to patent publication US9505742B2, “3,4-dihydro-2H-isoquinoline-1-one and 2,3-dihydro-isoindol-1-one compounds” (Hoffmann-La Roche Inc., priority 2013, dated 2016).

As a reminder, the EC50 is the concentration that produces a half-maximal response.

In assay [1] the target is T1, human CYP11B1 (Homo sapiens, UniProt P15538).
T1 construct: The expression plasmids contains the ORF for either human/cyno CYP11B1 or CYP11B2; expressed in transfected cells
T1 sequence (P15538 25-503): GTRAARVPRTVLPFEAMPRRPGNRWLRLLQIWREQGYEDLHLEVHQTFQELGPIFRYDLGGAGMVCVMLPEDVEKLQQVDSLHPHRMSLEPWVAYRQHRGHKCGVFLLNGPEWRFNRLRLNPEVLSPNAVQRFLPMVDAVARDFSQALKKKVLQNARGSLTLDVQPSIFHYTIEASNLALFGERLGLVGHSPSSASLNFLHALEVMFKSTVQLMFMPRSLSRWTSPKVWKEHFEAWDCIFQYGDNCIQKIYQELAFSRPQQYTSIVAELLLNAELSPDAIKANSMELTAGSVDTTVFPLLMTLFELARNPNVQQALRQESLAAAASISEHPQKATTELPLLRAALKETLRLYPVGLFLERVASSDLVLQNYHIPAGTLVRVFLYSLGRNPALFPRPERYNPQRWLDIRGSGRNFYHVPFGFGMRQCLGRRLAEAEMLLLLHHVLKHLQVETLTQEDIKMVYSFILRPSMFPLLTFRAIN
As to the kind of experiment: G-402 cellular enzyme assay, human CYP11B1 (cortisol release, HTRF). It counts as cell-based. The following applies: G-402 cells expressing human CYP11B1; 1 μM Deoxycortisol. An excerpt: (§1) Herein we identified the use of the G-402 cell line as a host cell to ectopically express (transiently or stably) enzymes of the CYP11 family. Specifically we developed stable G-402 cells expressing ectopically human CYP11B1, human CYP11B2, human CYP11A1, cynmolgus CYP11B1 or cynomolgus CYP11B2 enzyme activity. Importantly the identified cell line G-402 expresses co-factors (adrenodoxin and adrenodoxin reductase) important for the activity of the CYP11 family and no relevant enzyme activity of the CYP11 family (in comparison to H295R cells) was detected in these cells. Therefore the G-402 cell line is uniquely suited as a host cell for the ectopic expression of enzymes from the CYP11 family. G-402 cells can be obtained from ATCC (CRL-1440) and were originally derived from a renal leiomyoblastoma.
(§2) The expression plasmids contains the ORF for either human/cyno CYP11B1 or CYP11B2 under the control of a suitable promoter (CMV-promoter) and a suitable resistance marker (neomycin). Using standard techniques the expression plasmid is transfected into G-402 cells and these cells are then selected for expressing the given resistance markers. Individual cell-clones are then selected and assessed for displaying the desired enzymatic activity using 11-Deoxycorticosterone (Cyp11B2) or 11-Deoxycortisol (Cyp11B) as a substrate.
(§3) G-402 cells expressing CYP11 constructs were established as described above and maintained in McCoy's 5a Medium Modified, ATCC Catalog No. 30-2007 containing 10% FCS and 400 μg/ml G418 (Geneticin) at 37° C. under an atmosphere of 5% CO2/95% air. Cellular enzyme assays were performed in DMEM/F12 medium containing 2.5% charcoal treated FCS and appropriate concentration of substrate (0.3-10 uM 11-Deoxycorticosterone, 11-Deoxycortisol or Corticosterone). For assaying enzymatic activity, cells were plated onto 96 well plates and incubated for 16 h. An aliquot of the supernatant is then transferred and analyzed for the concentration of the expected product (Aldosterone for CYP11B2; Cortisol for CYP11B1). The concentrations of these steroids can be determined using HTRF assays from CisBio analyzing either Aldosterone or Cortisol.
(§4) Inhibition of the release of produced steroids can be used as a measure of the respective enzyme inhibition by test compounds added during the cellular enzyme assay. The dose dependent inhibition of enzymatic activity by a compound is calculated by means of plotting added inhibitor concentrations (x-axes) vs. measured steroid/product level (y-axes). The inhibition is then calculated by fitting the following 4-parameter sigmoidal function (Morgan-Mercer-Flodin (MMF) model) to the raw data points using the least squares method:
(§5) [formula] wherein, A is the maximum y value, B is the EC50 factor determined using XLFit, C is the minimum y value and D is the slope value.
(§6) EC50 values for compounds claimed herein were tested with the G402-based assay system described. Cyp11B2 enzyme activity was tested in presence of 1 μM Deoxycorticosterone and variable amounts of inhibitors; Cyp11B1 enzyme activity was tested in presence of 1 μM Deoxycortisol and variable amounts of inhibitors.
(In general: In TR-FRET formats the signal depends on donor and acceptor labels being close together.)

Assay [2] has as its target T2, human CYP11B2 (Homo sapiens, UniProt P19099).
T2 construct: The expression plasmids contains the ORF for either human/cyno CYP11B1 or CYP11B2; expressed in transfected cells
T2 sequence (P19099 25-503): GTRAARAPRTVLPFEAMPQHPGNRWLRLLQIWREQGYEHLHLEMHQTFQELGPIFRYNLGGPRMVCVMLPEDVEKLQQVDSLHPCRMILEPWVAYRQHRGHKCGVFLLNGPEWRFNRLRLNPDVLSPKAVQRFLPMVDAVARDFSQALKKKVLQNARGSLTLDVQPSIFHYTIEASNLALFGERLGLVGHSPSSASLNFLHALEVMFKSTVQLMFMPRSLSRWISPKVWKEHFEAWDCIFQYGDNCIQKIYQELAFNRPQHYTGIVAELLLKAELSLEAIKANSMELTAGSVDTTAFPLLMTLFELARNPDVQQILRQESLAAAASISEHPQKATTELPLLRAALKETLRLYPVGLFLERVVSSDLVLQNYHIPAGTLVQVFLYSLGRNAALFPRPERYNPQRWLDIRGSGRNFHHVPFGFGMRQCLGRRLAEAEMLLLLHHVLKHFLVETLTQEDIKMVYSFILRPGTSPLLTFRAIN
Put plainly: G-402 cellular enzyme assay, human CYP11B2 (aldosterone release, HTRF). It counts as cell-based. The following applies: G-402 cells expressing human CYP11B2; 1 μM Deoxycorticosterone.
Text: as §1, §2, §3, §4, §5, §6

For `CCS(=O)(=O)N1CCC(c2cncc(N3C(=O)c4ccc(Cl)cc4[C@H]3C)c2)CC1` (single isomer, unassigned) [Example 24, (+)-(3R or 3S)-5-chloro-2-[5-(1-ethylsulfonylpiperidin-4-yl)pyridin-3-yl]-3-methyl-3H-isoindol-1-one], the EC50 in assay [1] turned out to be 433 nM; in assay [2], 2 nM.

Regarding `CCS(=O)(=O)N1CCC(c2cncc(N3C(=O)c4ccc(Cl)cc4[C@@H]3C)c2)CC1` (single isomer, unassigned) [Example 25, (−)-(3S or 3R)-5-chloro-2-[5-(1-ethylsulfonylpiperidin-4-yl)pyridin-3-yl]-3-methyl-3H-isoindol-1-one], the concentration giving a half-maximal response (EC50) stood at 107 nM in assay [1] and 2 nM in assay [2].

On to `CC(C)S(=O)(=O)N1CCC(c2cncc(N3C(=O)c4ccc(Cl)cc4[C@H]3C)c2)CC1` (single isomer, unassigned) [Example 26, (+)-(3R or 3S)-5-chloro-3-methyl-2-[5-(1-propan-2-ylsulfonylpiperidin-4-yl)pyridin-3-yl]-3H-isoindol-1-one], for which the half-maximal effective concentration (EC50) in assay [1] is 1620 nM; in assay [2], 11 nM.

With `CC(C)S(=O)(=O)N1CCC(c2cncc(N3C(=O)c4ccc(Cl)cc4[C@@H]3C)c2)CC1` (single isomer, unassigned) [Example 27, (−)-(3S or 3R)-5-chloro-3-methyl-2-[5-(1-propan-2-ylsulfonylpiperidin-4-yl)pyridin-3-yl]-3H-isoindol-1-one], the EC50 in assay [1] was determined as 523 nM; in assay [2], 1 nM.

Turning to `Cc1ccncc1C(=O)N1CCC(c2cncc(N3C(=O)c4ccc(Cl)cc4[C@H]3C)c2)CC1` (single isomer, unassigned) [Example 28, (+)-(3R or 3S)-5-chloro-3-methyl-2-[5-[1-(4-methylpyridine-3-carbonyl)piperidin-4-yl]pyridin-3-yl]-3H-isoindol-1-one], the EC50 was 167 nM in assay [1] and 4 nM in assay [2].

`Cc1ccncc1C(=O)N1CCC(c2cncc(N3C(=O)c4ccc(Cl)cc4[C@@H]3C)c2)CC1` (single isomer, unassigned) [Example 29, (−)-(3S or 3R)-5-chloro-3-methyl-2-[5-[1-(4-methylpyridine-3-carbonyl)piperidin-4-yl]pyridin-3-yl]-3H-isoindol-1-one]: the EC50 was 117 nM in assay [1] and 9 nM in assay [2].

Take `CC1(C)c2cc(Cl)ccc2C(=O)N1c1cncc(C2CCCN(S(C)(=O)=O)C2)c1` (single isomer, unassigned; (+)) [Example 5, (+)-5-chloro-3,3-dimethyl-2-[5-[(3R or 3S)-1-methylsulfonylpiperidin-3-yl]pyridin-3-yl]isoindol-1-one]: the figures for the EC50 in assay [1] and in assay [2] were 213 nM and 5 nM, respectively.

Turning to `CCCS(=O)(=O)N1CCC(c2cncc(N3C(=O)c4ccc(Cl)cc4C3(C)C)c2)C1` (single isomer, unassigned; (+)) [Example 8, (+)-5-chloro-3,3-dimethyl-2-[5-[(3R or 3S)-1-propylsulfonylpyrrolidin-3-yl]pyridin-3-yl]isoindol-1-one], the EC50 was 109 nM in assay [1] and 4 nM in assay [2].

On to `CC(C)S(=O)(=O)N1CCC(c2cncc(N3C(=O)c4ccc(Cl)cc4C3(C)C)c2)C1` (single isomer, unassigned; (+)) [Example 10, (+)-5-chloro-3,3-dimethyl-2-[5-[(3R or 3S)-1-propan-2-ylsulfonylpyrrolidin-3-yl]pyridin-3-yl]isoindol-1-one], for which the EC50 in assay [1] came out at 93 nM; in assay [2] it was 2 nM.

`CC1(C)c2cc(Cl)ccc2C(=O)N1c1cncc(C2CCN(S(=O)(=O)C3CC3)C2)c1` (single isomer, unassigned; (+)) [Example 12, (+)-5-chloro-2-[5-[(3R or 3S)-1-cyclopropylsulfonylpyrrolidin-3-yl]pyridin-3-yl]-3,3-dimethylisoindol-1-one]: the EC50 was 75 nM in assay [1] and 2 nM in assay [2].
